Reference: patent US20230218555A1, “CREATINE, ITS DERIVATIVES, COMPOSITIONS AND METHODS OF USE THEREOF” (priority 2021, published 2023)

Assays:
Type in all cases: in vivo, human
psoriatic arthritis = experiment: Example 35: psoriatic arthritis, topical C20 and C26
Experimental: A subject with a 40 year history of psoriasis and several years of psoriatic arthritis topically applied the formulations cited in Example 34 above. Formulation of C20 was applied to both hands. […] The formulation of C26 was applied to the left ankle and foot, pain of which was relieved in about 5 minutes and lasted for 4-5 hours.

[1] = tested on: post trauma pain in the pinned ankle; experiment: Example 34: ankle pain after surgical insertion of metal screws; conditions: for extent of pain relief: 6% in WEP 244, topical
Experimental: A subject with above described post trauma pain at the end of each day experienced painful discomfort in the pinned ankle. […] Complete relief lasted nearly 24 hours. At the end of the next day, the ankle was as painful as the days before. Subject applied 6% C20 in same liquid vehicle.

[2] = tested on: Rheumatoid Arthritis (RA); experiment: Example 26: rheumatoid arthritis, intralesional injection and topical; conditions: 0.15 ml of 2% aqueous solution/suspension once weekly, 4 injections; over 9 weeks
Experimental: A subject, described in an earlier Example, after approximately 4 months of worsening symptoms, and finger joint enlargements on both hands, realized that they were rapidly developing RA, especially when a rheumatoid nodule enlarged over the terminal joint of the left […] finger to a size of approximately 1 cm in diameter, and about 3 mm thick. The nodule was initially injected with 0.15 ml of a 2% aqueous solution/suspension of creatine monohydrate once weekly for 4 injections. […] Thereafter the subject wore a nitrile glove containing a few drops of C15 3-9% dissolved in WP 82 for an hour twice daily on the left hand only. After another 2 months C15 9% in WP 82 was topically applied by means of their wearing nitrile gloves containing the C15 solution for 1 hour twice daily. […] It is intended for the subject to continue topical treatment in one form or another for an indefinite time forward.

[3] = tested on: arthritic pain in the right hip joint; experiment: Example 16: subcutaneous injection for hip pain
Experimental: A subject who for several weeks was experiencing disabling arthritic pain in the right hip joint, was given two subcutaneous injections of a sterile 2% aqueous solution/suspension of creatine monohydrate over the point of pain, 0.5 ml given first, and 0.6 ml given five days later. […] A third subcutaneous injection of 0.7 ml of the 2% creatine monohydrate solution/suspension was given over the point of joint pain elicited by finger pressure. […] Hip remained pain free for another 2 weeks.

dental pain = experiment: Example 17: post dental surgery pain; conditions: about 1 gram powder in mouth
Experimental: A subject had three teeth, #23, 24 and 25 extracted at 12 noon, then had two implants posted immediately after. At about 6 pm, subject started to feel pain in the gum area after lidocaine anesthesia wore off. […] The subject took about 1 gram creatine monohydrate powder into mouth. The powder, as it dissolved in saliva, was rinsed for approximately 5 minutes, then swallowed. The dental pain stopped in about 20 minutes, and relief lasted for 8 hours.

[4] = tested on: rheumatoid arthritis; rheumatoid nodule; experiment: Example 13: rheumatoid arthritis fingers, nodule injection and glove application; conditions: nodule injected with 0.15 ml of 2% aqueous solution/suspension once weekly, four injections; over 9 weeks
Experimental: A subject noted changes in their fingers that appeared to be compatible with the diagnosis of early rheumatoid arthritis in autumn of the year. At about one month later there appeared over the terminal interphalangeal joint of the left third finger a raised inflammatory nodule compatible with the diagnosis of a rheumatoid nodule. The nodule was injected with 0.15 ml of a 2% aqueous solution/suspension of creatine monohydrate once weekly for four injections. […] Thereafter, for a period of one month, the subject wore a nitrile glove containing a few drops N-acetyl ethyl creatine 3% dissolved in water: propylene glycol 8:2 for about an hour twice daily on the left hand only.

[5] = tested on: arthritis of cervical and thoracic spine; experiment: Example 14: subcutaneous injection over sites of spinal pain
Experimental: A physician subject with continually worsening osteoarthritis of multiple joints for 15-16 years, prepared a sterile aqueous injectable solution/suspension of 2% creatine monohydrate. Under their direction, medical assistants were instructed on techniques to give subcutaneous injections of the 2% aqueous solution/suspension with either a 1 ml syringe with 27 gauge 13 mm needle or with a 1 ml insulin syringe with 30 gauge 8 mm needle.
Five intervertebral painful sites of arthritis of cervical and thoracic spine, identified by finger pressure, received a single injection of 0.3 ml of the solution.

[6] = tested on: psoriatic arthritis, painful, swollen and erythematous right ankle; experiment: Example 15: subcutaneous injection over ankle with psoriatic arthritis; conditions: 0.5 ml of 2% subcutaneous
Experimental: A diabetic subject with psoriasis for over 4 decades, and worsening psoriatic arthritis for about 10 years, presented with an acutely painful, swollen and erythematous right ankle. Using a 1 ml insulin syringe with short needle they injected 0.5 ml of the 2% creatine monohydrate as described above into a subcutaneous site of the anterior ankle.

pain in the left ankle = experiment: Example 8: post fracture acute ankle pain; conditions: before the test
Description: A subject with a history of fractured left ankle seven years earlier, who had worn a plaster cast for several weeks at that time, related that for the past three months disturbing and increasing pain in the left ankle, which was occurring daily and was disturbing their sleep every night. […] They were provided 8 ounces of the above Formulation A (Example 4), to be applied to the painful ankle as needed.

[7] = tested on: painful swollen right knee; experiment: Example 9: painful swelling of knee joint, three topical formulations; conditions: before the test
Experimental: A subject with relentless painful swollen right knee for 3-4 years, not relieved by oral ibuprofen, was tested and rated analgesic efficacy of the three following formulations applied topically to the knee. [table] [table] [table]

In the case of `CCOC(=O)CN(C)C(N)=NC(=O)c1ccccc1` [Compound C20, N-benzoyl ethyl creatinate], the “extent of pain relief” value (psoriatic arthritis; 6% in WEP 244 applied to both hands) is reported as “completely relieved”, the duration of relief (psoriatic arthritis; both hands) is reported as 4 h and the “time to pain relief” value (psoriatic arthritis; both hands) is reported as “about 2 minutes”. The “extent of pain relief” value [1] was “Some relief did occur but not complete as with C26”.
For `CCOC(=O)CN(C)C(N)=NC(=O)c1ccccc1OC(C)=O` [Compound C26, N-2-acetoxybenzoyl ethyl creatinate], the “extent of pain relief” value (psoriatic arthritis; 6% in WEP 244 applied to left ankle and foot) was “relieved”, the duration of relief (psoriatic arthritis; left ankle and foot) was 4 to 5 h and the “time to pain relief” value (psoriatic arthritis; left ankle and foot) was “about 5 minutes”. The “duration of complete relief” value ([1]; 6% in WEP 244) was about 24 h, the “time to pain relief” value ([1]; 6% in WEP 244) was at most 1 min and the “extent of pain relief” value [1] was “completely relieved the pain”.
In the case of `CN(CC(=O)O)C(=N)N.O` [creatine monohydrate], the “resolution of rheumatoid nodule” value [2] is reported as “the nodule resolved almost completely”, the “duration of complete relief of pain” value ([3]; after the first two injections) is reported as 2 weeks and the duration pain free ([3]; after third injection) is reported as 2 weeks. For the same compound, the “time to complete relief of pain” value ([3]; third injection, 0.7 ml) was 3 to 4 h, the “extent of pain relief” value ([3]; third subcutaneous injection, 0.7 ml of 2%) was “Complete relieve of pain” and the “extent of pain relief” value ([3]; two subcutaneous injections of 2% solution/suspension, 0.5 ml and 0.6 ml five days later, person) was “Complete relief of pain”. For the same compound, the duration of relief (dental pain) was 8 h, the “time until dental pain stopped” value (dental pain; rinsed approximately 5 minutes, swallowed, person) was “about 20 minutes” and the “resolution of rheumatoid nodule” value [4] was “the nodule resolved almost completely”. The “extent of pain relief” value ([5]; single subcutaneous injection of 0.3 ml of 2% aqueous solution/suspension at five intervertebral sites) was “All sites/areas became pain free”, the “time to pain free after injection” value ([5]; subcutaneous 0.3 ml of 2% per site) was 2 to 3 h and the duration pain free ([5]; subcutaneous 0.3 ml of 2% per site, no further therapy) was 7 weeks. For the same compound, the “edema and erythema of the ankle” value [6] was “completely resolved within a week”, the “state of ankle four weeks after the injection” value [6] was “remained pain free, was of normal appearance, and was completely functional as a normal ankle” and the “time to resolution of ankle pain” value [6] was “about 30 minutes”. For the same compound, the “extent of pain relief” value ([6]; anterior ankle, person) was “Ankle pain completely resolved”.
`CC(C)Cc1ccc(C(C)C(=O)O)cc1` (stereo not shown) [ibuprofen] was tested, and the “pain relief by oral comparator” value (pain in the left ankle) was “did relieve the pain for several hours, but the pain always recurred” and the “pain relief by oral comparator” value [7] was “not relieved”.
